Data as given in patent publication US20260167656A1, “PHOSPHORAMIDATE COMPOUNDS AND USES THEREOF” (ALLORION THERAPEUTICS INC, priority 2022, published 2026).

Experiments:
[1] = tested on: non-small cell lung cancer cell line H460; assay: In vitro human cancer cell line cytotoxicity (proliferation) assay in H460, CellTiter-Glo, 72 hours; format: cell-based; settings: H460 cells, DMSO condition (no AKR1C3 inhibitor), read-out: CTG H460: Avg IC50 (nM) [Assay Condition: DMSO]
Outline: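 H460 cells were seeded at 3×10^3 per well and grown 24 h at 37 °C, 5% CO2 before compound addition from 10 mM DMSO stocks. After 72 h further incubation, viability was measured by CellTiter-Glo, and IC50 values in nM were derived from the proliferation data.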

[2] = tested on: non-small cell lung cancer cell line H460; assay: H460 proliferation assay in the presence of 3 uM ASP9521 (AKR1C3 specific inhibitor); format: cell-based, human; settings: H460 cells, CellTiter-Glo, 72 hours, in the presence of 3 uM ASP9521 added 4 hours prior to compounds; read-out: CTG H460: Avg IC50 (nM) [Assay Condition: ASP9521]
Outline: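 H460 cells pre-incubated 24 h, then exposed to compounds for 72 h at 37 °C, 5% CO2. Viability read by CellTiter-Glo. ASP9521 (3 uM, AKR1C3 inhibitor) added 4 h before compounds.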

Row | SMILES | IC50 [1] [nM] | IC50 [2] [nM] | IC50 ([1]; Homo sapiens, NCI-H460, 72 h) [nM]
1 | O=[N+]([O-])c1ccc2c(c1Oc1cccc(-c3cnn(C4CC4)c3)c1)CCC2OP(=O)(N1CC1)N1CC1 (stereo not drawn) [Example 95] | 50 to 100 | 1310 | 
2 | O=[N+]([O-])c1ccc2c(c1Oc1cccc(-c3cnn(C4CC4)c3)c1)CCC2OP(=O)(N1CC1)N1CC1 (stereo not drawn) [Example 96] | 10 to 50 | 5270 | 
3 | O=C(c1cccc(Oc2c([N+](=O)[O-])ccc3c2CCC3OP(=O)(N2CC2)N2CC2)c1)N1CCC1 (stereo not drawn) [Example 97] |  | 497 | < 10
4 | O=C(c1cccc(Oc2c([N+](=O)[O-])ccc3c2CCC3OP(=O)(N2CC2)N2CC2)c1)N1CCC1 (stereo not drawn) [Example 98] | < 10 | 205 | 
5 | O=C(c1cccc(Oc2c([N+](=O)[O-])ccc3c2CCC3OP(=O)(N2CC2)N2CC2)c1)N1CCCC1 (stereo not drawn) [Example 99] |  | 1010 | < 10
6 | O=C(c1cccc(Oc2c([N+](=O)[O-])ccc3c2CCC3OP(=O)(N2CC2)N2CC2)c1)N1CCCC1 (stereo not drawn) [Example 100] | < 10 | 618 | 
7 | O=C(c1cccc(Oc2c([N+](=O)[O-])ccc3c2CCC3OP(=O)(N2CC2)N2CC2)c1)N1CCC(F)(F)C1 (stereo not drawn) [Example 101] |  | 1210 | < 10
8 | O=C(c1cccc(Oc2c([N+](=O)[O-])ccc3c2CCC3OP(=O)(N2CC2)N2CC2)c1)N1CCC(F)(F)C1 (stereo not drawn) [Example 102] | < 10 | 919 | 
9 | O=C(c1cccc(Oc2c([N+](=O)[O-])ccc3c2CCC3OP(=O)(N2CC2)N2CC2)c1)N1CCC(F)(F)CC1 (stereo not drawn) [Example 103] |  | 811 | < 10
10 | O=C(c1cccc(Oc2c([N+](=O)[O-])ccc3c2CCC3OP(=O)(N2CC2)N2CC2)c1)N1CCC(F)(F)CC1 (stereo not drawn) [Example 104] | < 10 | 180 | 
11 | O=C(c1cccc(Oc2c([N+](=O)[O-])ccc3c2CCC3OP(=O)(N2CC2)N2CC2)c1)N1CCCOCC1 (stereo not drawn) [Example 105] |  | 1300 | 10 to 50
12 | O=C(c1cccc(Oc2c([N+](=O)[O-])ccc3c2CCC3OP(=O)(N2CC2)N2CC2)c1)N1CCCOCC1 (stereo not drawn) [Example 106] | < 10 | 416 | 
13 | O=C1CCCCN1c1cccc(Oc2c([N+](=O)[O-])ccc3c2CCC3OP(=O)(N2CC2)N2CC2)c1 (stereo not drawn) [Example 107] |  | 6500 | 10 to 50
14 | O=C1CCCCN1c1cccc(Oc2c([N+](=O)[O-])ccc3c2CCC3OP(=O)(N2CC2)N2CC2)c1 (stereo not drawn) [Example 108] | < 10 | 1710 | 
15 | O=C1COCCN1c1cccc(Oc2c([N+](=O)[O-])ccc3c2CCC3OP(=O)(N2CC2)N2CC2)c1 (stereo not drawn) [Example 109] |  | 6450 | 10 to 50
16 | O=C1COCCN1c1cccc(Oc2c([N+](=O)[O-])ccc3c2CCC3OP(=O)(N2CC2)N2CC2)c1 (stereo not drawn) [Example 110] | < 10 | 2420 | 
17 | O=C1CCCN1c1cccc(Oc2c([N+](=O)[O-])ccc3c2CCC3OP(=O)(N2CC2)N2CC2)c1 (stereo not drawn) [Example 111] |  | 1100 | < 10
18 | O=C1CCCN1c1cccc(Oc2c([N+](=O)[O-])ccc3c2CCC3OP(=O)(N2CC2)N2CC2)c1 (stereo not drawn) [Example 112] | < 10 | 243 | 
19 | O=[N+]([O-])c1ccc2c(c1Oc1cccc(-n3cccn3)c1)CCC2OP(=O)(N1CC1)N1CC1 (stereo not drawn) [Example 113] |  | 650 | < 10
20 | O=[N+]([O-])c1ccc2c(c1Oc1cccc(-n3cccn3)c1)CCC2OP(=O)(N1CC1)N1CC1 (stereo not drawn) [Example 114] | < 10 | 1280 | 
21 | O=[N+]([O-])c1ccc2c(c1Oc1cccc(-n3ccc(C4CC4)n3)c1)CCC2OP(=O)(N1CC1)N1CC1 (stereo not drawn) [Example 115] |  | 4730 | 10 to 50
22 | O=[N+]([O-])c1ccc2c(c1Oc1cccc(-n3ccc(C4CC4)n3)c1)CCC2OP(=O)(N1CC1)N1CC1 (stereo not drawn) [Example 116] | 10 to 50 | 5560 | 
23 | Cn1cnc(-c2cccc(Oc3c([N+](=O)[O-])ccc4c3CCC4OP(=O)(N3CC3)N3CC3)c2)cc1=O (stereo not drawn) [Example 117] | ≥ 100 | 1030 | 
24 | Cn1cnc(-c2cccc(Oc3c([N+](=O)[O-])ccc4c3CCC4OP(=O)(N3CC3)N3CC3)c2)cc1=O (stereo not drawn) [Example 118] | 10 to 50 | 4510 | 
25 | Cc1noc(-c2cccc(Oc3c([N+](=O)[O-])ccc4c3CCC4OP(=O)(N3CC3)N3CC3)c2)n1 (stereo not drawn) [Example 119] |  | 644 | < 10
26 | Cc1noc(-c2cccc(Oc3c([N+](=O)[O-])ccc4c3CCC4OP(=O)(N3CC3)N3CC3)c2)n1 (stereo not drawn) [Example 120] | < 10 | 2080 | 
27 | Cn1c(=O)oc2cc(Oc3c([N+](=O)[O-])ccc4c3CCC4OP(=O)(N3CC3)N3CC3)ccc21 (stereo not drawn) [Example 121] |  | 33.8 | < 10
